This is an account of results in US20240246964A1 (Arbutus Biopharma Corporation, priority 2021, published 2024).

Assay [1] has as its target PD-L1 His protein / PD-1 Fc protein (Homo sapiens (Human), UniProt Q9NZQ7). Description: HTRF Assay (PD-1/PD-L1 interaction). The assay is classed as binding. The following applies: PD-L1 His 6 nM, PD-1 Fc 6 nM. On the technique in general: TR-FRET usually uses a lanthanide donor and a delayed reading to cut background.
The target of the next assay is human PD-L1 (Homo sapiens (Human), UniProt Q9NZQ7). Description: T cell activation luciferase reporter cell culture system (T Cell Activation Assay). It counts as cell-based. The note with it: luciferase reporter assay; PD-L1 aAPC/CHO-K1 cells with PD-1 effector Jurkat T cells. On the technique in general: A reporter such as luciferase makes a cellular process visible.
Chain of human PD-L1 (Q9NZQ7 19-290): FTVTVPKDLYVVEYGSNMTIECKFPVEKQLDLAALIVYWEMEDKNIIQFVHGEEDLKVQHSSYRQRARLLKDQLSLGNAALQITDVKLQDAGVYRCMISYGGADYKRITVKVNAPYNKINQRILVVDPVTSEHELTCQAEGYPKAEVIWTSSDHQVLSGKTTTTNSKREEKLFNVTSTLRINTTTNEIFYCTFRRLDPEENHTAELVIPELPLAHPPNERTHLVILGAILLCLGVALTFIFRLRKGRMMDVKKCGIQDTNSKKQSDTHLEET

Chain of PD-L1 His protein / PD-1 Fc protein (Q9NZQ7 19-238): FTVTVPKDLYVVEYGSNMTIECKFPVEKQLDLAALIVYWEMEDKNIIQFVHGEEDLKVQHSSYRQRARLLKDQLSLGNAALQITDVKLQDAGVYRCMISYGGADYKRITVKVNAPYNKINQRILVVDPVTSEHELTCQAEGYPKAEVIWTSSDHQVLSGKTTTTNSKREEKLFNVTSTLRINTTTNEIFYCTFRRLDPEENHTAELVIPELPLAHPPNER

With `COc1cc(-c2nccc(-c3cccc(-c4cc(F)c(CNC[C@@H]5CCC(=O)N5)c(OC)n4)c3Cl)c2Cl)cc2c1CN(CCO)CC2` [Compound 132, (S)-5-((((6-(2-chloro-3-(3-chloro-2-(2-(2-hydroxyethyl)-8-methoxy-1,2,3,4-tetrahydroisoquinolin-6-yl)pyridin-4-yl)phenyl)-4-fluoro-2-methoxypyridin-3-yl)methyl)amino)methyl)pyrrolidin-2-one], the IC50 in assay [1] is 0.408 nM. Besides, the EC50 at human PD-L1 was found to be 51.2 nM.
Taken in the same sequence, the figures for `COc1cc(-c2nccc(-c3cccc(-c4ccc(CNC[C@@H]5CCC(=O)N5)c(OC)n4)c3Cl)c2Cl)ccc1CNC1(C(=O)OC(C)C)CC1` [Compound 135, isopropyl (S)-1-((4-(3-chloro-4-(2-chloro-3-(6-methoxy-5-((((5-oxopyrrolidin-2-yl)methyl)amino)methyl)pyridin-2-yl)phenyl)pyridin-2-yl)-2-methoxybenzyl)amino)cyclopropane-1-carboxylate] were 31.2 nM and ≥ 10000 nM.
`CNCc1ccc(-c2nccc(-c3cccc(-c4ccc(CNC)c(OC)n4)c3Cl)c2Cl)cc1OC` [Compound 136, 1-(6-(2-chloro-3-(3-chloro-2-(3-methoxy-4-((methylamino)methyl)phenyl)pyridin-4-yl)phenyl)-2methoxypyridin-3-yl)-N-methylmethanamine] came in with an IC50 in assay [1] of 0.708 nM. This compound also registered an EC50 on human PD-L1 of 16.3 nM.
`COc1nc(-c2cccc(-c3ccnc(-c4ccc5c6c(n(C)c5c4)CCNC6)c3Cl)c2Cl)ccc1CNC[C@@H]1CCC(=O)N1` [Compound 141, (S)-5-((((6-(2-chloro-3-(3-chloro-2-(5-methyl-2,3,4,5-tetrahydro-1H-pyrido[4,3-b]indol-7-yl)pyridin-4-yl)phenyl)-2-methoxypyridin-3-yl)methyl)amino)methyl)pyrrolidin-2-one] showed an IC50 in assay [1] of 0.826 nM. Further, the EC50 on human PD-L1 is ≥ 10000 nM.
On the same counts, the results for `COc1nc(-c2cccc(-c3ccnc(-c4ccc5c(c4)CN(CCNC[C@@H]4CCC(=O)N4)C5=O)c3Cl)c2Cl)ccc1CNC[C@H](C)O` [Compound 142, 5-(3-chloro-4-(2-chloro-3-(5-((((S)-2-hydroxypropyl)amino)methyl)-6-methoxypyridin-2-yl)phenyl)pyridin-2-yl)-2-(2-((((S)-5-oxopyrrolidin-2-yl)methyl)amino)ethyl)isoindolin-1-one] are 6.66 nM and 3380 nM.
Consider `COc1nc(-c2cccc(-c3ccnc(-c4ccc5c(c4)CN(CCNC[C@@H]4CCC(=O)N4)C5=O)c3Cl)c2Cl)ccc1CNC1CCN(C(C)=O)CC1` [Compound 143, (S)-5-(4-(3-(5-(((1-acetylpiperidin-4-yl)amino)methyl)-6-methoxypyridin-2-yl)-2-chlorophenyl)-3-chloropyridin-2-yl)-2-(2-(((5-oxopyrrolidin-2-yl)methyl)amino)ethyl)isoindolin-1-one], for which, in assay [1], the IC50 came out at 3.94 nM. For the same compound, a half-maximal effect on human PD-L1 (EC50) was put at 5440 nM.
Taken in the same sequence, the figures for `COc1nc(-c2cccc(-c3ccnc(-c4ccc5c(c4)CN(CCNC[C@@H]4CCC(=O)N4)C5=O)c3Cl)c2Cl)ccc1CN1CC2(C1)CN(C(C)=O)C2` [Compound 144, (S)-5-(4-(3-(5-((6-acetyl-2,6-diazaspiro[3.3]heptan-2-yl)methyl)-6-methoxypyridin-2-yl)-2-chlorophenyl)-3-chloropyridin-2-yl)-2-(2-(((5-oxopyrrolidin-2-yl)methyl)amino)ethyl)isoindolin-1-one] were 2.68 nM and ≥ 10000 nM.
In assay [1], `COc1cc(-c2nccc(-c3cccc(-c4ccc(CNC[C@@H]5CCC(=O)N5)c(OC)n4)c3Cl)c2Cl)cc(F)c1CN1CC2(CNC(=O)C2)C1` [Compound 145, (S)-2-(4-(3-chloro-4-(2-chloro-3-(6-methoxy-5-((((5-oxopyrrolidin-2-yl)methyl)amino)methyl)pyridin-2-yl)phenyl)pyridin-2-yl)-2-fluoro-6-methoxybenzyl)-2,6-diazaspiro[3.4]octan-7-one] came in with an IC50 of 2.02 nM. The compound also registered an EC50 on human PD-L1 of 17.7 nM.
For the compound `COc1cc(-c2nccc(-c3cccc(-c4ccc(CNC[C@@H]5CCC(=O)N5)c(OC)n4)c3Cl)c2Cl)cc(F)c1CN1CC2(CC(O)C2)C1` [Compound 146, (S)-5-((((6-(2-chloro-3-(3-chloro-2-(3-fluoro-4-((6-hydroxy-2-azaspiro[3.3]heptan-2-yl)methyl)-5-methoxyphenyl)pyridin-4-yl)phenyl)-2-methoxypyridin-3-yl)methyl)amino)methyl)pyrrolidin-2-one], half-maximal inhibition in assay [1] (IC50) was put at 0.77 nM. This compound also registered an EC50 on human PD-L1 of 61.1 nM.
On the same counts, the results for `COc1cc(-c2nccc(-c3cccc(-c4ccc(CNC[C@@H]5CCC(=O)N5)c(OC)n4)c3Cl)c2Cl)cc(F)c1CNCCCF` [Compound 147, (S)-5-((((6-(2-chloro-3-(3-chloro-2-(3-fluoro-4-(((3-fluoropropyl)amino)methyl)-5-methoxyphenyl)pyridin-4-yl)phenyl)-2-methoxypyridin-3-yl)methyl)amino)methyl)pyrrolidin-2-one] are 1.96 nM and 42.7 nM.
On the same counts, the results for `COc1cc(-c2nccc(-c3cccc(-c4ccc(CNC[C@@H]5CCC(=O)N5)c(OC)n4)c3Cl)c2Cl)cc(F)c1CNC1CCN(C(C)=O)CC1` [Compound 148, (S)-5-((((6-(3-(2-(4-(((1-acetylpiperidin-4-yl)amino)methyl)-3-fluoro-5-methoxyphenyl)-3-chloropyridin-4-yl)-2-chlorophenyl)-2-methoxypyridin-3-yl)methyl)amino)methyl)pyrrolidin-2-one] are 1.11 nM and 19.5 nM.
Taken in the same sequence, the figures for `COC(=O)C1(NCc2cc(C(F)(F)F)c(N[C@H]3CCc4c(-c5nccc(-c6ccc(CNC[C@@H]7CCC(=O)N7)c(OC)n6)c5Cl)cccc43)nc2OC)CC1` [Compound 149, methyl 1-(((6-(((S)-4-(3′-chloro-6-methoxy-5-(((((S)-5-oxopyrrolidin-2-yl)methyl)amino)methyl)-[2,4′-bipyridin]-2′-yl)-2,3-dihydro-1H-inden-1-yl)amino)-2-methoxy-5-(trifluoromethyl)pyridin-3-yl)methyl)amino)cyclopropane-1-carboxy late] were 12.7 nM and ≥ 10000 nM.
For the compound `COc1nc(-c2cccc(-c3ccnc(-c4ccc5nc([C@H]6N[C@@H]7CC[C@H]6C7)[nH]c5c4)c3Cl)c2Cl)ccc1CNC[C@@H]1CCC(=O)N1` [Compound 152, (S)-5-((((6-(3-(2-(2-((1R,3S,4S)-2-azabicyclo[2.2.1]heptan-3-yl)-1H-benzo[d]imidazol-6-yl)-3-chloropyridin-4-yl)-2-chlorophenyl)-2-methoxypyridin-3-yl)methyl)amino)methyl)pyrrolidin-2-one], half-maximal inhibition in assay [1] (IC50) was put at 2.57 nM. For the same compound, on human PD-L1, the EC50 was ≥ 10000 nM.
`COc1cc(CNC[C@@H]2CCC(=O)N2)cc(-c2nccc(-c3cccc(-c4ccc(CNC[C@@H]5CCC(=O)N5)c(OC)n4)c3Cl)c2Cl)c1` [Compound 153, (S)-5-((((6-(2-chloro-3-(3-chloro-2-(3-methoxy-5-(((((S)-5-oxopyrrolidin-2-yl)methyl)amino)methyl)phenyl)pyridin-4-yl)phenyl)-2-methoxypyridin-3-yl)methyl)amino)methyl)pyrrolidin-2-one] came in with an IC50 in assay [1] of 5.14 nM. On human PD-L1, this compound came in with an EC50 of 782 nM.
On the same counts, the results for `COc1cc(CNC2CCN(C(C)=O)CC2)cc(-c2nccc(-c3cccc(-c4ccc(CNC5CCN(C(C)=O)CC5)c(OC)n4)c3Cl)c2Cl)c1` [Compound 154, 1-(4-(((6-(3-(2-(3-(((1-acetylpiperidin-4-yl)amino)methyl)-5-methoxyphenyl)-3-chloropyridin-4-yl)-2-chlorophenyl)-2-methoxypyridin-3-yl)methyl)amino)piperidin-1-yl)ethan-1-one] are 8.73 nM and ≥ 10000 nM.
On the same counts, the results for `CNCc1cc(OC)cc(-c2nccc(-c3cccc(-c4ccc(CNC)c(OC)n4)c3Cl)c2Cl)c1` [Compound 155, 1-(6-(2-chloro-3-(3-chloro-2-(3-methoxy-5-((methylamino)methyl)phenyl)pyridin-4-yl)phenyl)-2-methoxypyridin-3-yl)-N-methylmethanamine] are 6.82 nM and ≥ 10000 nM.
With `COc1cc(CNCCO)cc(-c2nccc(-c3cccc(-c4ccc(CNCCO)c(OC)n4)c3Cl)c2Cl)c1` [Compound 156, 2-(((6-(2-chloro-3-(3-chloro-2-(3-(((2-hydroxyethyl)amino)methyl)-5-methoxyphenyl)pyridin-4-yl)phenyl)-2-methoxypyridin-3-yl)methyl)amino)ethan-1-ol], the IC50 in assay [1] was 1.18 nM. Further, the EC50 at human PD-L1 was ≥ 10000 nM.
As for `COc1cc(CNC[C@H](C)O)cc(-c2nccc(-c3cccc(-c4ccc(CNC[C@H](C)O)c(OC)n4)c3Cl)c2Cl)c1` [Compound 157, (S)-1-(((6-(2-chloro-3-(3-chloro-2-(3-((((S)-2-hydroxypropyl)amino)methyl)-5-methoxyphenyl)pyridin-4-yl)phenyl)-2-methoxypyridin-3-yl)methyl)amino)propan-2-ol], it took 2.45 nM to reach half-maximal inhibition in assay [1] (IC50). Moreover, the EC50 on human PD-L1 is ≥ 10000 nM.
Taken in the same sequence, the figures for `COc1nc(-c2cccc(-c3ccnc(-c4ccc5c6c(n(C)c5c4)CCN(CCO)C6)c3Cl)c2Cl)ccc1CNC[C@@H]1CCC(=O)N1` [Compound 158, (S)-5-((((6-(2-chloro-3-(3-chloro-2-(2-(2-hydroxyethyl)-5-methyl-2,3,4,5-tetrahydro-1H-pyrido[4,3-b]indol-7-yl)pyridine-4-yl)phenyl)-2-methoxypyridin-3-yl)methyl)amino)methyl)pyridine1330ne-2-one] were 0.64 nM and ≥ 10000 nM.
On the same counts, the results for `CNCc1ccc(-c2cccc(-c3ccnc(-c4ccc5c(c4)CNC5)c3Cl)c2Cl)nc1OC` [Compound 159, 1-(6-(2-chloro-3-(3-chloro-2-(isoindolin-5-yl)pyridine-4-yl)phenyl)-2-methoxypyridin-3-yl)-N-methylmethanamine] are 1.34 nM and ≥ 10000 nM.

Usually IC50 stands for the concentration that inhibits the measured activity by half. Read a high IC50 as a need for much substance. Usually EC50 stands for the midpoint of the concentration-response curve. High values mean a need for much substance, low ones an effect from little substance.
